Data taken from US6362176B1, “Compositions, methods and kits for treating rheumatoid arthritis” (Super Gen, Inc., priority 1998, dated 2002).

Experiments:
individuals with RA = conditions: cited from earlier work
[1] = cited from earlier work
RA patients [2] = conditions: bi-weekly pentostatin, months 1 and 3; cited from earlier work
RA patients [3] = experiment: pentostatin monotherapy on a monthly schedule (inventor); assay type: in vivo, human; conditions: treatment continued past the flare
Excerpt: When the treatment was continued past the flare, approximately a third of the patients entered a pharmaceutical free remission for a period of weeks or months.

CLL; hairy cell leukemia = conditions: cited from earlier work
[4] = 4 mg/M^2 once a week x3 or 4 followed by once every three to four weeks

Row | SMILES | patients remaining on methotrexate for two or more years (individuals with RA; in vivo) | time to worsening of RA after monotherapy is discontinued (individuals with RA; in vivo) | patients expected to obtain at least partial relief (individuals with RA; methotrexate monotherapy, recent studies) | individuals still on the drug five years after starting (individuals with RA; methotrexate monotherapy) | individuals with RA getting some favorable response (individuals with RA; methotrexate monotherapy) | patients entering remission as defined by ACR criteria (individuals with RA; methotrexate monotherapy) | time of peak serum concentrations ([1]; intramuscular administration) | absorption ([1]; parenteral administration) | patients with significant flare (duration of morning stiffness, tender and swollen joints) (RA patients [2]) | patients entering a pharmaceutical free remission for weeks or months (RA patients [3]) | efficacy in hairy cell leukemia (CLL; hairy cell leukemia; [4]) | toxicity at even lower doses (CLL; hairy cell leukemia; [4]) | toxicity at lower doses (CLL; hairy cell leukemia; 5 mg/M^2 on two successive days) | clinical response in CLL (CLL; hairy cell leukemia; doses of 1.0 to 13.5 mg/kg) | toxicity at very high doses (CLL; hairy cell leukemia; very high doses)
1 | CN(Cc1cnc2nc(N)nc(N)c2n1)c1ccc(C(=O)N[C@@H](CCC(=O)O)C(=O)O)cc1 [methotrexate, N-[4-[[(2,4-diamino-6-pteridinyl)methyl]methylamino]benzoyl]-L-glutamic acid] | Up to 70% | three to six | about 70% | over 50% | Approximately 70% | less than 30% | thirty to sixty | generally complete absorption | – | – | – | – | – | – | –
2 | OC[C@H]1O[C@@H](n2cnc3c2NC=NC[C@H]3O)C[C@@H]1O [pentostatin, 2′-deoxycoformycin] | – | – | – | – | – | – | – | – | 9 of 11 | approximately a third | effective in inducing remission in hairy cell leukemia | no toxicity | mild with transient leukopenia, nausea and lethargy or somnolence | cytoreduction but no clinically meaningful remission in CLL | substantial and may include renal failure secondary to acute tubular necrosis, central nervous system toxicity (seizures), pulmonary edema, and keratoconjunctivitis
